These results are taken from US4374841A, “Pyridoxine derivatives, and use in therapeutics” (S. A. Labaz N.V., priority 1980, dated 1983).

One series concerns β-receptors. The experiment in a line: Antiadrenergic properties: anti-β effect (reduction of epinephrine-accelerated heart-rate). In kind it is in vivo. The settings on record: intravenous, anaesthetized atropinized dog. As for the experimental part:
(§1) The purpose of this test was to determine the capacity of the compounds under study to reduce epinephrine-increased blood-pressure (anti-α effect) and epinephrine-accelerated heart-rate (anti-β effect) in the dog previously anaesthetized with pentobarbital (30 mg/kg) and atropinized (1 mg/kg).
The percentage of reduction of the epinephrine-induced acceleration of heart-rate obtained by means of the compounds under study in comparison with the tachycardia previously measured (about 70 beats) was then registered.
(§2) In both cases, the results were expressed as follows: […]
(§3) + for a <50%-reduction of the increase in pressure or cardiac frequency
(§4) ++ for a ≥50-reduction of the increase in pressure or cardiac frequency
(§5) +++ for the almost complete supression of the increase in pressure or cardiac frequency.

The test system of series [1] is anaesthetized dog. Description: Hypotension in the anaesthetized dog. Format: in vivo. Particulars: intravenous. How it is done: (a) Hypotension in the anaesthetized dog
The hypotensive effect was determined for at least one hour after the intravenous injection of a dose of the compound under study in the dog previously anaesthetized with pentobarbital (30 mg/kg) and atropinized (1 mg/kg).
Arterial pression was registered on a femoral artery.
The results were expressed as follows: […]
++ for a lasting reduction of about 30% in arterial pressure
+ for a short-lived reduction of about 20% in arterial pressure.

A further series has as its system α-receptors. The experiment in a line: Antiadrenergic properties: anti-α effect (reduction of epinephrine-increased blood-pressure). Format: in vivo, dog. The settings on record: intravenous; for Anti-α effect: anaesthetized atropinized dog, epinephrine. How it is done: as §1
After that, the dose of epinephrine so determined was administered followed by a dose, by intravenous route, of the compound to be studied. The percentage of reduction of hypertension produced by the compound under study in comparison with the hypertension previously obtained (about 100 mm.Hg) was then registered.
as §2, §3, §4, §5

The test system of another series is mice. Description: Central depressant properties (passage of mice through a light ray). In kind it is in vivo. The settings on record: Mus musculus, po, 0.5 h, intragastric, 30 minutes after administration, recorded over 15 minutes, dose with depressant action in 50% of the animals, read-out: AD50 (the source's name). How it is done: D. Central depressant properties
Thirty minutes after the intragastric administration of a dose of the compound to be studied, batches of mice were placed in a container through which a ray of light was projected. By means of a photoelectric cell, a record was made of the number of animals passing through the light ray over a period of 15 minutes. The same test was performed with control animals.
The AD50 was then calculated i.e. the dose of the compound under study which provoked a depressant action in 50% of the animals.

Another series has as its system Okamoto rat. Description: Hypotension in the Okamoto rat. Format: in vivo. How it is done:
(b) Hypotension in the Okamoto rat
In this trial, the rats used belonged to a race specifically bred to produce animals having high blood-pressure. The arterial pressure of these rats was determined (about 180 mm.Hg) at the beginning of the test and a dose of the compound to be studied was then administered.
The decrease in arterial pressure was registered every hour for 6 hours after the administration of the compound in question.

Series [2] has as its system anaesthetized dog. Description: Reserpine-like properties (cardiac frequency and contractility of the myocardium). In kind it is in vivo. The settings on record: for change in vivo at 1 mg/kg: Canis lupus familiaris, intravenous, anaesthetized dog. From the text: C. Reserpine-like properties
the increase in cardiac frequency
the increase of (dP/dt) at its maximum, i.e. the increase of the maximum of the derivative of the left ventricular pressure in relation to time.
This derivative thus represented an index of contractility.

A further series can be described thus: Acute toxicity in rats. Format: in vivo. Particulars: rat, in vivo. From the text:
(§6) Acute toxicity tests were also undertaken in rats and mice with compounds of the invention.

Another series relates to rats. The experiment in a line: Acute toxicity in rats. Format: in vivo. The settings on record: intragastric route, fumarate form.
From the text: as §6

Another series can be described thus: Acute toxicity in mice. The settings on record: mouse, in vivo.
From the text: as §6

Where [3] appears, read: ip, intraperitoneal route, sesquioxalate form.
Where [4] appears, read: po, intragastric route, sesquioxalate form.

Read-outs that look alike come from different tables or passages of the source.

“4,5-Dihydroxymethyl-3-[3-(2,6-dimethyl-phenoxyethylamino)-2-hydroxy-propoxy]-2-methyl-pyridine [G]”: the Anti-β effect entry in the series with β-receptors (2 mg/kg) is reported as “+ (for a <50%-reduction of the increase in pressure or cardiac frequency)”. The “Decrease in arterial pressure” value with anaesthetized dog [1] (2 mg/kg) is “++ (for a lasting reduction of about 30% in arterial pressure)”. The Anti-α effect result in the series with α-receptors (2 mg/kg) is “+++”.
Consider “4,5-Dihydroxymethyl-3-[3-(2-ethyl-phenoxyethylamino)-2-hydroxy-propoxy]-2-methyl-pyridine [F]”, for which, in the series with β-receptors (10 mg/kg), the Anti-β effect entry is on record as “++ (for a ≥50-reduction of the increase in pressure or cardiac frequency)”. The “Decrease in arterial pressure” value in the series on anaesthetized dog [1] (10 mg/kg) is recorded as “+ (for a short-lived reduction of about 20% in arterial pressure)”. Further, in the series with α-receptors (10 mg/kg), the Anti-α effect entry is given as “+++”.
As for `Cc1ccccc1OCCNCC(O)COc1c(C)ncc(CO)c1CO` (stereo not shown) [Compound A, 4,5-dihydroxymethyl-3-[2-hydroxy-3-(2-methyl-phenoxyethylamino)-propoxy]-2-methyl-pyridine], the Anti-β effect result with β-receptors (10 mg/kg) is “+ (for a <50%-reduction of the increase in pressure or cardiac frequency)”. The ED50 with mice worked out at 50 mg/kg. In addition, in the series with anaesthetized dog [1] (2 mg/kg), the “Decrease in arterial pressure” value is given as “++ (for a lasting reduction of about 30% in arterial pressure)”. Moreover, the “maximum decrease (arterial pressure)” value with Okamoto rat (25 mg/kg, oral route, acute treatment, initial about 180 mm.Hg) is 21 mm.Hg. Further, the minimal effective dose in the series with Okamoto rat (chronic treatment, involving one single administration, read-out: found to be active at a dose as low as) amounted to 50 mg/kg; in the series on Okamoto rat (oral route, acute treatment, read-out: provoked hypotension at a dose as low as), 25 mg/kg. Moreover, the “activity in acute treatment (ranking)” value in the series with Okamoto rat (oral route, acute treatment) is on record as “the most active in acute treatment”. In the series on α-receptors (10 mg/kg), the Anti-α effect entry was “+++”. The “α-antiadrenergic properties at a dose as low as” value in the series with α-receptors (lowest active dose, dog, sesquioxalate) was found to be 2 mg/kg. The change in vivo at 1 mg/kg was 10 to 30% in the series with anaesthetized dog [2] ((dP/dt) maximum, read-out: increase in the contractility of the myocardium) and 10 to 30% in the series on anaesthetized dog [2] (read-out: increase in cardiac frequency). Further, the “effects on cardiac frequency and contractility after reserpine” value in the series with anaesthetized dog [2] (dog having previously received reserpine) is listed as “suppressed”.
As a reminder, the LD50 is the dose expected to kill half of the subjects tested. Take `Cc1ccccc1OCCNCC(O)COc1c(C)ncc(CO)c1CO` (stereo not shown) [drawing 41, 4,5-Dihydroxymethyl-3-[2-hydroxy-3-(2-methyl-phenoxyethylamino)-propoxy]-2-methyl-pyridine]: the 50% lethal dose (LD50) in the series “Acute toxicity in rats” (setting [3]) was 320 mg/kg; in “Acute toxicity in rats” (iv, fumarate form), 200 mg/kg; in “Acute toxicity in rats” (iv, sesquioxalate form) it was 170 mg/kg; in the series “Acute toxicity in rats” (setting [4]), 2200 mg/kg; in the series “Acute toxicity in mice” (intravenous route, sesquioxalate form), 118 mg/kg; in the series “Acute toxicity in mice” (setting [3]) it was 290 mg/kg. For the same compound, the median lethal dose (LD50) in the series “Acute toxicity in mice” (setting [4]) was determined as 700 mg/kg. This compound also showed an LD0 in the series with rats greater than 2500 mg/kg.
As to `COc1ccccc1OCCNCC(O)COc1c(C)ncc(CO)c1CO` (stereo not shown) [drawing 42], the LD50 is 245 mg/kg in the series “Acute toxicity in rats” (iv, intravenous route (salt form not stated)) and greater than 5000 mg/kg in “Acute toxicity in mice” (po, intragastric route (salt form not stated)).
